Measurements: ChEMBL document CHEMBL4725268, “Anticonvulsant and analgesic in neuropathic pain activity in a group of new aminoalkanol derivatives” (Bioorg Med Chem Lett, 2020)
Active and inactive are the calls of the source.

Tests used:
Clostridioides difficile = test: Antimicrobial activity against clinical strain Clostridium difficile assessed as reduction in bacterial growth at 0.195 to 100 ug/ml by disk diffusion method; type: organism-based; settings: in vivo, dose 0.195-100 µg/ml
Escherichia coli [1] = test: Antimicrobial activity against Escherichia coli ATCC 35218 assessed as reduction in bacterial growth at 0.195 to 100 ug/ml by serial dilution method; type: organism-based; settings: in vivo, dose 0.195-100 µg/ml
Staphylococcus aureus [2] = test: Antimicrobial activity against Staphylococcus aureus ATCC 25923 assessed as reduction in bacterial growth at 0.195 to 100 ug/ml by serial dilution method; type: organism-based; settings: in vivo, dose 0.195-100 µg/ml
Staphylococcus aureus [3] = test: Antimicrobial activity against clinical strain Staphylococcus aureus assessed as reduction in bacterial growth at 0.195 to 100 ug/ml by serial dilution method; type: organism-based; settings: in vivo, dose 0.195-100 µg/ml
[4] = Toxicity in mouse assessed as lethality at 20 mg/kg, ip; type: organism-based; settings: in vivo
[5] = Toxicity in mouse assessed as lethality at 50 mg/kg, ip; type: organism-based; settings: in vivo
[6] = Protection index, ratio of TD50 for toxicity in ip dosed mouse to ED50 for anticonvulsant activity in ip dosed mouse; type: organism-based; settings: in vivo, read-out: PI
[7] = Toxicity in ip dosed mouse assessed as motor impairment by rotarod test; type: organism-based; settings: in vivo
Salmonella enterica = test: Antimicrobial activity against Salmonella enterica ATCC 51957 assessed as reduction in bacterial growth at 0.195 to 100 ug/ml by serial dilution method; type: organism-based; settings: in vivo, dose 0.195-100 µg/ml
Hoylesella loescheii = test: Antimicrobial activity against Prevotella loescheii ATCC 15930 assessed as reduction in bacterial growth at 0.195 to 100 ug/ml by disk diffusion method; type: organism-based, DSM 19665 = JCM 12249 = ATCC 15930; settings: in vivo, dose 0.195-100 µg/ml
Enterococcus faecalis = test: Antimicrobial activity against Enterococcus faecalis ATCC 29212 assessed as reduction in bacterial growth at 0.195 to 100 ug/ml by serial dilution method; type: organism-based; settings: in vivo, dose 0.195-100 µg/ml
[8] = target: T1, 5-hydroxytryptamine receptor 1A (Homo sapiens, UniProt P08908); test: Binding affinity to 5-HT1A (unknown origin)
T1 sequence (P08908 whole entry): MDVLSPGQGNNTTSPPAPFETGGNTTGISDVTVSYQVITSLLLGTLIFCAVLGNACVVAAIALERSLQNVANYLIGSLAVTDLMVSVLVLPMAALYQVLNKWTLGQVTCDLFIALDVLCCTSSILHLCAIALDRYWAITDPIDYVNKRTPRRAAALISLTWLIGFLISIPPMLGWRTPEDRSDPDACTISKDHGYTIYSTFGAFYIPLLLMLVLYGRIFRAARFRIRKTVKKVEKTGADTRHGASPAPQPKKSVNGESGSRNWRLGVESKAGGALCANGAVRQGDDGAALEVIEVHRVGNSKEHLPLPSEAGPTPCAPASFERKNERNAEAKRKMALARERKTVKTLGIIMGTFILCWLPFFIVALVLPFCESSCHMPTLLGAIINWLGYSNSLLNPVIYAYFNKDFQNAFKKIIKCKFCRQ

Mus musculus [9] = test: Anticonvulsant activity in ip dosed mouse assessed as protection against current-induced seizure by maximal electroshock seizure test; type: functional
[10] = Toxicity in mouse assessed as lethality at 30 mg/kg, ip; type: organism-based; settings: in vivo
[11] = Antimicrobial activity against clinical strain Bifidobacterium assessed as reduction in bacterial growth at 0.195 to 100 ug/ml by disk diffusion method; settings: dose 0.195-100 µg/ml
Escherichia coli [12] = test: Antimicrobial activity against Escherichia coli ATCC 25922 assessed as reduction in bacterial growth at 0.195 to 100 ug/ml by serial dilution method; type: organism-based; settings: in vivo, dose 0.195-100 µg/ml
Bacteroides fragilis = test: Antimicrobial activity against Bacteroides fragilis ATCC 25285 assessed as reduction in bacterial growth at 0.195 to 100 ug/ml by disk diffusion method; type: organism-based; settings: in vivo, dose 0.195-100 µg/ml
[13] = Toxicity in mouse assessed as lethality at 70 mg/kg, ip; type: organism-based; settings: in vivo
[14] = target: T2, 5-hydroxytryptamine receptor 1A (Homo sapiens) (UniProt P08908); test: Binding affinity to 5-HT1A (unknown origin) at 10^-5 M; settings: dose 1.0 10^-5M
T2 sequence (whole entry): T1 sequence (P08908 whole entry)

[15] = Antioxidant activity assessed as DPPH radical scavenging activity at 125 to 1000 uM by microplate method; type: functional; settings: dose microM 125-1000
[16] = Genotoxicity in Salmonella typhimurium TA100 assessed as number of revertant at 75 ug by AMES test (reference value: 64.3 to 130.7); type: toxicity, Salmonella enterica subsp. enterica serovar Typhimurium; settings: in vivo; dose 75 µg
[17] = Genotoxicity in Salmonella typhimurium TA98 assessed as number of revertant at 200 ug by AMES test (reference value: 8 to 8.3); type: toxicity, Salmonella enterica subsp. enterica serovar Typhimurium; settings: in vivo; dose 200 µg
in vitro [18] = settings: mouse, microsomes
Description: Metabolic stability in mouse microsome assessed as half life

in vitro [19] = settings: mouse, microsomes; remark: listed apart in the source
Description: Metabolic stability in mouse microsome assessed as intrinsic clearance

[20] = Genotoxicity in Salmonella typhimurium TA100 assessed as number of revertant at 200 ug by AMES test (reference value: 64.3 to 130.7); type: toxicity, Salmonella enterica subsp. enterica serovar Typhimurium; settings: in vivo; dose 200 µg
[21] = Genotoxicity in Salmonella typhimurium TA98 assessed as number of revertant at 10 ug by AMES test (reference value: 8 to 8.3); type: toxicity, Salmonella enterica subsp. enterica serovar Typhimurium; settings: in vivo; dose 10 µg
Mus musculus [22] = test: Antiallodynic activity in mouse model of OXA-induced peripheral neuropathy assessed as mean latency time to nocifensive response at 18 mg/kg, ip administered after 3 hrs of OXA stimulation and measured after 1 hr by cold plate method (reference value: 59.76 +/- 0.16 sec); type: functional
[23] = Genotoxicity in Salmonella typhimurium TA100 assessed as mutagenic index at 200 ug by AMES test; type: toxicity, Salmonella enterica subsp. enterica serovar Typhimurium; settings: in vivo; dose 200 µg
Mus musculus [24] = test: Antiallodynic activity in mouse model of OXA-induced peripheral neuropathy assessed as mean latency time to nocifensive response at 18 mg/kg, ip administered after 7 days of OXA stimulation and measured after 1 hr by cold plate method (reference value: 57.64 +/- 1.267 sec); type: functional
[25] = Genotoxicity in Salmonella typhimurium TA98 assessed as mutagenic index at 500 ug by AMES test; type: toxicity, Salmonella enterica subsp. enterica serovar Typhimurium; settings: in vivo; dose 500 µg
[26] = Genotoxicity in Salmonella typhimurium TA98 assessed as number of revertant at 75 ug by AMES test (reference value: 8 to 8.3); type: toxicity, Salmonella enterica subsp. enterica serovar Typhimurium; settings: in vivo; dose 75 µg
Mus musculus [27] = test: Antiallodynic activity in mouse model of OXA-induced peripheral neuropathy assessed as mean paw withdrawal threshold at 18 mg/kg, ip administered after 3 hrs of OXA stimulation and measured after 1 hr by Von-frey method (reference value: 3.144 +/- 0.169 g); type: functional
[28] = Genotoxicity in Salmonella typhimurium TA100 assessed as number of revertant at 10 ug by AMES test (reference value: 64.3 to 130.7); type: toxicity, Salmonella enterica subsp. enterica serovar Typhimurium; settings: in vivo; dose 10 µg
[29] = Genotoxicity in Salmonella typhimurium TA98 assessed as mutagenic index at 75 ug by AMES test; type: toxicity, Salmonella enterica subsp. enterica serovar Typhimurium; settings: in vivo; dose 75 µg
[30] = Genotoxicity in Salmonella typhimurium TA100 assessed as mutagenic index at 75 ug by AMES test; type: toxicity, Salmonella enterica subsp. enterica serovar Typhimurium; settings: in vivo; dose 75 µg
Mus musculus [31] = test: Antiallodynic activity in mouse model of OXA-induced peripheral neuropathy assessed as mean paw withdrawal threshold at 18 mg/kg, ip administered after 7 days of OXA stimulation and measured after 1 hr by Von-frey method (reference value: 3.192 +/- 0.181 g); type: functional
[32] = Genotoxicity in Salmonella typhimurium TA100 assessed as mutagenic index at 10 ug by AMES test; type: toxicity, Salmonella enterica subsp. enterica serovar Typhimurium; settings: in vivo; dose 10 µg
[33] = Genotoxicity in Salmonella typhimurium TA98 assessed as mutagenic index at 10 ug by AMES test; type: toxicity, Salmonella enterica subsp. enterica serovar Typhimurium; settings: in vivo; dose 10 µg
[34] = Genotoxicity in Salmonella typhimurium TA100 assessed as mutagenic index at 750 ug by AMES test; type: toxicity, Salmonella enterica subsp. enterica serovar Typhimurium; settings: in vivo; dose 750 µg
[35] = Genotoxicity in Salmonella typhimurium TA98 assessed as mutagenic index at 200 ug by AMES test; type: toxicity, Salmonella enterica subsp. enterica serovar Typhimurium; settings: in vivo; dose 200 µg
[36] = Drug metabolism in mouse microsome assessed as formation of monohydroxylated metabolite; type: ADME; settings: microsomes
[37] = Genotoxicity in Salmonella typhimurium TA98 assessed as number of revertant at 500 ug by AMES test (reference value: 8 to 8.3); type: toxicity, Salmonella enterica subsp. enterica serovar Typhimurium; settings: in vivo; dose 500 µg
[38] = Genotoxicity in Salmonella typhimurium TA100 assessed as number of revertant at 750 ug by AMES test (reference value: 64.3 to 130.7); type: toxicity, Salmonella enterica subsp. enterica serovar Typhimurium; settings: in vivo; dose 750 µg

SMILES: Cc1ccc(OCCOCCN[C@H](C)CO)c(C)c1
- Activity (Clostridioides difficile): Non-Toxic
- Activity (Escherichia coli [1]): Non-Toxic
- Activity (Staphylococcus aureus [2]): Non-Toxic
- Activity (Staphylococcus aureus [3]): Non-Toxic
- Activity [4]: Non-Toxic
- Activity [5]: Non-Toxic
- selectivity ratio [6]: 3.4
- TD50 [7]: 93.2 mg/kg
- Activity (Salmonella enterica): Non-Toxic
- Activity (Hoylesella loescheii): Non-Toxic
- Activity (Enterococcus faecalis): Non-Toxic
- Ki [8]: 4800 nM
- ED50 (Mus musculus [9]): 27.4 mg/kg
- Activity [10]: Non-Toxic
- Activity [11]: Non-Toxic
- Activity (Escherichia coli [12]): Non-Toxic
- Activity (Bacteroides fragilis): Non-Toxic

SMILES: Cc1ccc(OCCCCN[C@H](C)CO)c(C)c1
- Activity (Clostridioides difficile): Non-Toxic
- Activity (Escherichia coli [1]): Non-Toxic
- Activity (Staphylococcus aureus [2]): Non-Toxic
- Activity (Staphylococcus aureus [3]): Non-Toxic
- Activity [5]: Non-Toxic
- selectivity ratio [6]: 2.59
- TD50 [7]: 136 mg/kg
- Activity (Salmonella enterica): Non-Toxic
- Activity (Hoylesella loescheii): Non-Toxic
- Activity (Enterococcus faecalis): Non-Toxic
- ED50 (Mus musculus [9]): 52.5 mg/kg
- Activity [11]: Non-Toxic
- Activity (Escherichia coli [12]): Non-Toxic
- Activity [13]: Non-Toxic
- Activity [14]: inactive
- Activity (Bacteroides fragilis): Non-Toxic

SMILES: Cc1cc(C)c(C)c(OCCOCCN[C@H]2CCCC[C@@H]2O)c1.Cl (racemic)
- Activity [5]: Non-Toxic
- Activity [15]: inactive
- Activity [16]: 80.7
- Activity [17]: 11
- half-life (in vitro [18]): 37.2 min
- microsomal CLint (in vitro [19]): 93 µL/min/mg
- Activity [20]: 70.5
- Activity [21]: 7
- selectivity ratio [6]: 2.91
- Time (Mus musculus [22]): 20.92 s
- Activity_index [23]: 1
- TD50 [7]: 54.2 mg/kg
- Time (Mus musculus [24]): 8.86 s
- Activity_index [25]: 1.1
- Activity [26]: 8
- Activity (Mus musculus [27]): 2.09 g
- Ki [8]: 1200 nM
- Activity [28]: 86
- Activity_index [29]: 1
- ED50 (Mus musculus [9]): 18.2 mg/kg
- Activity_index [30]: 1.1
- Activity (Mus musculus [31]): 1.907 g
- Activity_index [32]: 1.2
- Activity_index [33]: 0.9
- Activity_index [34]: 0.4
- Activity_index [35]: 1.4
- Drug metabolism [36]: Metabolite_Detected
- Activity [37]: 9
- Activity [38]: 56
